Laboratory results reported in patent publication US9770479B2, “Extract of Rehmannia glutinasa Libosch for reducing blood sugar, reducing blood fat, treating leukemia, and preparation method and uses thereof” (priority 2007, dated 2017).
Marks after values point to notes of the source that are not given here.

How the values were obtained:
[1] = tested on: acute nonlymphocytic leukemia (ANLL) cell; test: Apoptosis induction / DNA fragments percentage in ANLL bone marrow cells; assay type: cell-based, human; details: for DNA fragments percentage: n 15
Excerpt: (§1) In order to investigate catalpol and the Rehmannia glutinasa Libosch. extract according to the present invention for their effect of inducing apoptosis in leukemia cells as well as the mechanism, bone marrows and HL260 cells from 15 patients with acute nonlymphocytic leukemia (ANLL) were mixed with catalpol and co-cultivated for 24 hr, and then different test methods including cytomorphologic means, DNA gel electrophoresis and DNA fragments percentage analysis were adopted to observe the effect on apoptosis in leukemia cells.

HL260 cell = test: Apoptosis induction / DNA fragments percentage in HL260 cells; assay type: cell-based; details: for DNA fragments percentage: n 4
Excerpt: as §1

[2] = tested on: Alloxan-Induced Hyperglycemic Mice; test: Blood glucose in alloxan-induced hyperglycemic mice; assay type: in vivo, Kunming mice; details: 500 mg/Kg intragastric daily
Experimental: Male Kunming mice weighing 25-29 g
Raising condition: The mice were housed in a laboratory animal room of 2nd grade that was ventilated regularly with the temperature controlled at 20-24° C.
Male mice were selected and firstly fasted for 6 hr, and alloxan was injected into tail vein at a dose of 60 mg/kg. After 72 hr, the mice having blood glucose values […] were selected as experimental animals and grouped.
The alloxan-induced hyperglycemic mice were randomly divided into groups labeled as normal control, model control, low-dose A, mid-dose A, high-dose A, DD, B, C, D, E and F. Subsequently, intragastric administration was performed for 15 consecutive days. 16 hours after the last administration, the mice were fasted for 8 hr. Blood glucose values before administration, and at 1 hour after administration for 5 days, 10 day and 15 days were tested respectively on blood collected from the inguinal vein, and the results were as follows: […]

[3] = tested on: Spontaneous Hyperglycemic KK Mice; test: Blood glucose in spontaneous hyperglycemic KK mice (type II diabetes model); assay type: in vivo; details: 500 mg/kg intragastric once a day
Experimental: Forty male and female KK diabetes mice weighing about 40 g were separately housed at a temperature of […] and fed on a fat-heavy diet and arbitrary amount of water. After being fast food but not fast water for 2 hr, 10 μl blood collected from the tail veins was tested for blood glucose values, and mice having blood glucose value ≧8.0 mmol/L were selected.
The mice obtained from the above step were randomly divided into groups labeled as model control, low-dose A, mid-dose A, high-dose A, DD, B, C, D, E and F. Subsequently, intragastric administration was performed once a day for 15 consecutive days. Blood glucose values before administration, and at one hour after administration for 5 days, 10 day and 15 days (fast food but not fast water for two hours after last administration) were tested respectively, and the results were as follows: […]

bcl22 = test: Immunohistochemical protein expression of gene bcl22 in bone marrow cells; assay type: cell-based, human; details: bone marrow cells before and after treatment; immunohistochemical method
Excerpt: as §1

[4] = table section 'after treating with the extract for 24 hrs', 10 − 7 mol · L^−1
[5] = table section 'at 24 hrs after treatment with catalpol', 10 − 7 mol · L^−1
[6] = table section 'after treating with the extract for 24 hrs', 10 μg · ml^−1
[7] = table section 'at 24 hrs after treatment with catalpol', 10 μg · ml^−1
[8] = co-cultivated 24 hr, cytomorphology, DNA gel electrophoresis, DNA fragments percentage

Structure (SMILES): COC(=O)C[C@](O)(CCCC(C)(C)O)C(=O)O[C@@H]1C(OC)=C[C@]23CCCN2CCc2cc4c(cc2[C@H]13)OCO4 [HHT]
- DNA fragments percentage [1, 4]: 36.2 ± 5.0%
- DNA fragments percentage [1, 5]: 38.1 ± 5.1%
- DNA fragments percentage (HL260 cell; [4]): 25.3 ± 1.0%
- DNA fragments percentage (HL260 cell; [5]): 26.1 ± 1.2%

Structure (SMILES): CN(C)C(=N)NC(=N)N [DD, dimethyl diguanidine]
- Blood Glucose Value ([2]; 0 day (before administration)): 19.7 mmol/L
- Blood Glucose Value ([2]; 5 days): 12.5** mmol/L
- Blood Glucose Value ([2]; 10 days): 13.2** mmol/L
- Blood Glucose Value ([2]; 15 days): 14.0** mmol/L
- Blood Glucose Value ([3]; 0 day (before administration)): 13.36 ± 2.85 mmol/L
- Blood Glucose Value ([3]; 5 days): 11.16 ± 3.19 mmol/L
- Blood Glucose Value ([3]; 10 days): 10.03 ± 2.11 mmol/L
- Blood Glucose Value ([3]; 15 days): 8.84 ± 4.51 mmol/L

Structure (SMILES): Nc1ccn([C@@H]2O[C@H](CO)[C@@H](O)[C@@H]2O)c(=O)n1 [Ara2c]
- DNA fragments percentage [1, 6]: 39.7 ± 7.9%
- DNA fragments percentage [1, 7]: 40.1 ± 8.2%
- DNA fragments percentage (HL260 cell; [6]): 27.0 ± 1.1%
- DNA fragments percentage (HL260 cell; [7]): 28.2 ± 1.4%

Structure (SMILES): OC[C@H]1O[C@@H](O[C@@H]2OC=C[C@H]3[C@H](O)[C@@H]4O[C@]4(CO)[C@@H]23)[C@H](O)[C@@H](O)[C@@H]1O [catalpol]
- induction of apoptosis [1, 8]: able to induce apoptosis
- induction of apoptosis (HL260 cell; [8]): able to induce apoptosis
- protein expression of gene bcl22 (bcl22): obviously lowered
